Laboratory results reported in patent publication US5498624A, “Selected pyrazolyl derivatives” (Monsanto Company, priority 1995, dated 1996).

Experiments:
Type in all cases: in vivo
[1] = test system: Erysiphe graminis f. sp. hordei; assay: Barley Powdery Mildew Foliar Assay (BPM Prot); details: inoculation 24 hours after application
Experimental: A) Pathogen/Inoculum Production--Leaf material infected with the barley powdery mildew fungus, Erysiphe graminis f. sp. hordei, is maintained continuously on barley seedlings, cv. Perry.
B) Host Propagation--Barley seedlings, cv. Perry, are grown to second leaf stage in a commercial soil preparation, "Metro Mix 200", amended with 100 gm/ft^3 slow release "Osmocote 14-14-14". A sufficient number of seeds are planted per pot (5 cm in diameter) in order to insure the production of 3-5 vigorous seedlings per pot. The plants are maintained in a growth chamber set at 21° C., 80% RH with a 12 hour photoperiod. Light intensity is set at 300 me/m^2/ sec.
C) Test Compound Preparation
1) Experimental compounds--Each or the compounds of the present invention are applied at 500, 100, and 20 ppm. Formulation is generally in […], 59.95% water, and 0.05% Tween 20. Four pots (with 3-5 plants/pot) at each rate are treated. The application volume is 8 ml per treatment. Formulated materials, such as commercially available products, are brought up to the appropriate treatment volume with water containing Tween®20,05% v/v.
2) Controls and standards--The commercial standards used are Corbel® (active ingredient fenpropimorph) and NUSTAR® (active ingredient flusilazole), both at the rate of 20 and/or 10 ppm. A set of control plants, treated with the formulation blank and inoculated, are also included.
D) Compound Application--Compound is sprayed onto the leaves of the plants (pots positioned on a rotating table) using a DeVilbiss Model 152 hand sprayer. Coverage of the first leaf is essential. After the plants have thoroughly dried they are returned to the growth room and randomized.
E) Inoculation/Incubation--Inoculation of the test plants takes place 24 hours after compound application. Inoculation is accomplished by gently shaking plants previously infected with the Erysiphe graminis f. sp. hordeii fungus over the test plants. This process liberates a cloud of spores which effectively and uniformly fall onto the test plants. After inoculation the plants are returned to the environmental conditions under which they were grown.
F) Evaluation--The test is assessed 6-7 days after inoculation. Treatments are evaluated by visually estimating the percentage of the leaf area infected on the first leaf. Three ratings are made on each pot (replicate). Phytotoxicity and growth effects are also noted at this time.
G) Data--All replicate data is recorded as a percent disease value. Treatment means are calculated and percent disease control is determined by the formula: (control mean--treatment mean)*100/control mean. The inoculated control treatment mean is used for this calculation. The percent protection values for the compounds of the present invention are as set out in the Table below.

Botrytis cinerea [2] = assay: Vine Grey Mold on Berries (VGM Prot); details: grape berries, inoculated 24 hours after treatment
Experimental: A) Pathogen/Inoculum Production--The grey mold fungus, Botrytis cinerea, is cultured on PDA at 20° C. and 12 hours fluorescent light until the radial growth is slightly less than the plate diameter. A 1×10^6spore/ml suspension in sterile water (0.05% Tween®20) is made by dislodging spores in a flooded plate, filtering out mycelium, and adjusting the concentration.
B) Host Preparation--Thompson or Red Flame seedless table grapes from local grocery stores are used. Grapes are washed first in room temperature soapy water solution (a few drops of detergent per gallon), and then surfaced sterilized in 70% ethanol for one minute, followed by two rinses in sterile water. Berries are chosen which still have stem (pedicel) attached.
1) Experimental compounds--Each of the compounds of the present invention are applied at 200, 50, and 20 ppm. Formulation is generally in 40% acetone, 59.95% water, and 0.05% Tween®20. Replication is 6 berries per treatment. Compound is pipetted onto berries at 1.0 ml/treatment (6 berries) in a sterile petri plate. After drying, each berry is transferred to an individual well in a 12-well tissue culture plate. Formulated materials, such as commercial preparations are generally applied using the formulation only (no acetone or surfactant added).
2) Controls and Standards--Three technical grade commercial standards are used, usually at 200 and 50 ppm; benomyl, iprodione, and vinclozolin. The test controls include a uninoculated, formulation treated set as well as an inoculated, formulation treated set.
D) Inoculation/Incubation--Each berry is inoculated with 0.2 ml of spore suspension, using a sterile pipet. Incubation is in the 12-well culture plates at 20° C., 12 hour photoperiod.
E) Test Execution--One day protectant--Berries are inoculated as described 24 hours after chemical treatment.
F) Evaluation--The test is rated 7-10 days after inoculation. Percent surface area infected with disease is determined for each replicate using the values of 0, 1, 2, 5, 10, 15, 20, 25, etc. through 100%. Treatment means are calculated and percent disease control is determined by the formula "(control mean--treatment mean)*100/control mean". The untreated/inoculated control treatment is used for this calculation. The resultant percent protection or percent disease control values for the compounds of the present invention are as set out in the Table below.

Botrytis cinerea [3] = assay: Vine Grey Mold on Berries (VGM Cur); details: grape berries, treated 24 hours after inoculation
Experimental: Vine Grey Mold on Berries (VGM Cur)--Assay is as set out above in EXAMPLE 11 except for step E) which is: Test Execution--In the curative test the berries are first inoculated as described, six per petri plate and placed in incubation. After 24 hours, the berries are temporarily removed from incubation, placed into 12-well tissue culture plates (one per well), treated, and then returned to incubation.

C[C@H]1CCC[C@H](c2ccccc2NC(=O)c2cn(C)nc2C(F)F)C1 (relative stereo) [Number 3, 1H-pyrazole-4-carboxamide, 3-(difluoromethyl)-1-methyl-N-[2-(3-methylcyclohexyl)phenyl]-, trans-]
BPM Prot percent disease control ([1]; 20 ppm foliar): 98% | BPM Prot percent disease control ([1]; 100 ppm foliar): 98% | VGM Prot percent disease control (Botrytis cinerea [2]; 20 ppm, * = averaged value): 67% | VGM Prot percent disease control (Botrytis cinerea [2]; 50 ppm, * = averaged value): 87% | VGM Cur percent disease control (Botrytis cinerea [3]; 20 ppm): 84% | VGM Cur percent disease control (Botrytis cinerea [3]; 50 ppm): 90%

CC[C@H]1CC[C@@H](c2ccccc2NC(=O)c2cn(C)nc2C(F)F)CC1 [Number 1, 1H-pyrazole-4-carboxamide, 3-(difluoromethyl)-N-[2-(4-ethylcyclohexyl)phenyl]-1-methyl-, cis-]
BPM Prot percent disease control ([1]; 500 ppm foliar): 88% | VGM Prot percent disease control (Botrytis cinerea [2]; 50 ppm, * = averaged value): 93% | VGM Prot percent disease control (Botrytis cinerea [2]; 200 ppm): 99%

C[C@@H]1CCC[C@H](c2ccccc2NC(=O)c2cn(C)nc2C(F)F)C1 (relative stereo) [Number 2, 1H-pyrazole-4-carboxamide, 3-(difluoromethyl)-1-methyl-N-[2-(-3-methylcyclohexyl)phenyl]-, cis-]
BPM Prot percent disease control ([1]; 20 ppm foliar): 90% | BPM Prot percent disease control ([1]; 100 ppm foliar): 96% | BPM Prot percent disease control ([1]; 500 ppm foliar): 85% | VGM Prot percent disease control (Botrytis cinerea [2]; 20 ppm, * = averaged value): 90% | VGM Prot percent disease control (Botrytis cinerea [2]; 50 ppm, * = averaged value): 93% | VGM Prot percent disease control (Botrytis cinerea [2]; 200 ppm): 99% | VGM Cur percent disease control (Botrytis cinerea [3]; 20 ppm): 41% | VGM Cur percent disease control (Botrytis cinerea [3]; 50 ppm): 82%

Cn1cc(C(=O)Nc2ccccc2[C@H]2CC[C@H](C)CC2)c(C(F)(F)F)n1 [Number 4, 1H-pyrazole-4-carboxamide, 1-methyl-N-[2-(4-methylcyclohexyl)phenyl]-3-(trifluoromethyl)-, trans-]
VGM Prot percent disease control (Botrytis cinerea [2]; 20 ppm, * = averaged value): 41% | VGM Prot percent disease control (Botrytis cinerea [2]; 50 ppm, * = averaged value): 67% | VGM Cur percent disease control (Botrytis cinerea [3]; 20 ppm): 19% | VGM Cur percent disease control (Botrytis cinerea [3]; 50 ppm): 69%
